{"source": "paper PMC11157767", "about": "(Molecular Cancer, 2024)", "key": {"TFG-MET allograft tumors": {"test_system": "TFG-MET allograft tumors", "test": "TFG-MET allograft preclinical trial in CD1 mice, Survival cohort (survival, BLI, body weight)", "assay_type": "in vivo, mouse", "conditions": "for BLI signal, individual mice: Murine allografts", "description": "All treatments started 1 week after transplantation. Radio therapy was administered for 6 days, delivering 12 Gy total. Compound treatment was continued for 84 days. […] N = 8 (vehicle arms) or n = 10 (compound-treated arms), respectively. […] First row is depicted in another intensity scale to visualize tumors in all mice. The depicted scale bar indicates the range from 5x10^5-1x10^7 photons/sec/cm^2/sr.\nSurvival, body weight and tumor burden data from TFG-MET allograft-bearing mice. a,Schematic illustrating the preliminary in vivo study to determine the efficacy of RT alone. b, Survival curve of mice depicted in a. […] Each line represents one mouse. The ends of lines indicate the onset of neurological symptoms and thereby the endpoints.\nBioluminescence signals of in vivo trials."}, "[1]": {"conditions": "humans, 400 mg BID orally; cited from earlier work"}, "TRIM24-MET-i cells": {"test_system": "TRIM24-MET-i cells", "test": "3-day dose-response assay, TRIM24-MET-i cells", "assay_type": "cell-based", "conditions": "Homo sapiens, TRIM24-MET-i"}, "[2]": {"test_system": "murine TFG-MET tumor cells", "test": "cells", "conditions": "Mus musculus", "source_text": "To calculate unbound EC50 and EC90 values, total values were multiplied with unbound drug fractions in culture media (Table 1)."}, "TRIM24-MET-r cells": {"test_system": "TRIM24-MET-r cells", "test": "3-day dose-response assay, TRIM24-MET-r cells", "assay_type": "cell-based", "conditions": "Homo sapiens, TRIM24-MET-r"}, "[3]": {"test_system": "murine TFG-MET tumor cells", "conditions": "7 days; RT 0Gy - 8Gy", "procedure": "For both compounds 1 µM was used as positive control.\nCompound concentrations comprised 10µM and 9 serial 1:3 dilutions in 4 replicates each and radiation doses ranged from 0Gy – 8Gy. […] Tested compound concentrations comprised 10 µM and 9 serial 1:3 dilutions in 4 replicates each. ZIP synergy scores were calculated based on cell numbers according to the CellTiter-Glo Assay by using the synergyfinder tool."}, "[4]": {"test": "Brain pharmacokinetics in CD-1 nude mice (NCA)", "assay_type": "in vivo, mouse", "description": "(§1) Fig. 2 TFG-MET-driven mouse model and pharmacokinetic profiles of MET inhibitors. a Schematic illustrating the method and utilized vectors to induce CRISPR/Cas9-mediated Trp53 deletion and TFG-MET overexpression following in utero electroporations. b H&E staining and Immunohistochemical analysis of a tumor generated by in utero electroporation, visualized by the HA-tag of TFG-MET. […] Three mice were analyzed per compound and time point. Error bars indicate the standard deviation. Dashed rectangles indicate time windows of radiation in the following preclinical allograft study\n(§2) See Methods – Pharmacokinetics section for a description of abbreviations."}, "RAD51": {"test_system": "RAD51", "test": "Western blot of RAD51 in TRIM24-MET or TFG-MET cells, 24 hours", "assay_type": "cell-based, human and mouse", "procedure": "Error bars display standard error of mean, statistical significance was determined using t-test analysis. (****;p<0.0001, ***;p<0.001, **;p<0.01, *;p<0.05). […] Each dot represents an individual replicate. Error bars display standard error of the mean. Statistical significance was determined using a One-Way ANOVA followed by Tukey’s multiple comparisons test (*p<0.05, **p<0.01, ***p<0.001, ****p<0.0001). Lysate from lane 10 was excluded due to the different timepoint after RT"}, "[5]": {"test": "Plasma pharmacokinetics in CD-1 nude mice (NCA)", "assay_type": "in vivo, mouse", "description": "as §1, §2"}, "[6]": {"conditions": "72 h, 3-day dose response, read-out: EC90 Total"}, "[7]": {"conditions": "total value multiplied with unbound fraction in culture media, read-out: EC90 Unbound"}, "[8]": {"conditions": "CD-1 nude, mouse, 25 mg/kg, Brain, NCA estimate"}, "[9]": {"conditions": "CD-1 nude, mouse, Brain, NCA estimate"}, "[10]": {"conditions": "CD-1 nude, mouse, Plasma, NCA estimate"}}, "note": "Several values for one entry are separate records, joined by “and”; a condition that tells them apart may be missing. Equal values may be shown once. Read-outs that look alike come from different tables or passages of the source.", "data": [{"smiles": "CNC(=O)c1ccc(-c2cnc3ncc(Cc4ccc5ncccc5c4)n3n2)cc1F", "note": "[Capmatinib]", "values": [{"measurement": "BLI signal, individual mice", "setting": "TFG-MET allograft tumors; day 7, drug + RT", "result": "2.90E+08 and 3.10E+06 and 2.30E+07 and 4.30E+06 and 9.70E+05 and 1.20E+06 and 8.80E+06 and 3.20E+06 and 7.40E+06 and 6.80E+07"}, {"measurement": "BLI signal, individual mice", "setting": "TFG-MET allograft tumors; day 7, drug alone", "result": "2.90E+06 and 5.20E+06 and 4.80E+06 and 3.30E+07"}, {"measurement": "BLI signal, individual mice", "setting": "TFG-MET allograft tumors; day 10, drug + RT", "result": "1.80E+08 and 2.30E+06 and 4.90E+07 and 1.20E+07 and 6.70E+06 and 5.70E+05 and 1.10E+07 and 1.60E+06 and 6.20E+06 and 3.60E+07"}, {"measurement": "BLI signal, individual mice", "setting": "TFG-MET allograft tumors; day 10, drug alone", "result": "2.30E+06 and 7.80E+06 and 1.50E+07 and 6.40E+07"}, {"measurement": "BLI signal, individual mice", "setting": "TFG-MET allograft tumors; day 14, drug + RT", "result": "2.10E+08 and 3.20E+06 and 6.50E+07 and 1.30E+07 and 3.10E+05 and 1.60E+05 and 7.60E+06 and 6.60E+05 and 1.20E+08"}, {"measurement": "BLI signal, individual mice", "setting": "TFG-MET allograft tumors; day 14, drug alone", "result": "8.30E+06 and 6.10E+07 and 2.00E+07 and 6.20E+07"}, {"measurement": "BLI signal, individual mice", "setting": "TFG-MET allograft tumors; day 21, drug + RT", "result": "1.10E+05 and 1.60E+05 and 1.30E+05 and 1.50E+07 and 5.10E+06 and 3.60E+06 and 6.20E+06 and 1.40E+05 and 9.20E+06"}, {"measurement": "BLI signal, individual mice", "setting": "TFG-MET allograft tumors; day 21, drug alone", "result": "8.80E+07 and 2.30E+08 and 7.60E+07 and 2.10E+08"}, {"measurement": "BLI signal, individual mice", "setting": "TFG-MET allograft tumors; day 28, drug + RT", "result": "1.10E+05 and 1.60E+05 and 2.00E+05 and 2.20E+08 and 4.30E+07 and 3.30E+07 and 5.10E+07 and 1.50E+05 and 5.80E+06"}, {"measurement": "BLI signal, individual mice", "setting": "TFG-MET allograft tumors; day 28, drug alone", "result": "5.10E+08 and 5.20E+08 and 2.60E+08 and 1.90E+08"}, {"measurement": "BLI signal, individual mice", "setting": "TFG-MET allograft tumors; day 35, drug + RT", "result": "1.10E+05 and 1.50E+05 and 1.40E+05 and 9.90E+05 and 1.00E+07"}, {"measurement": "BLI signal, individual mice", "setting": "TFG-MET allograft tumors; day 42, drug + RT", "result": "1.20E+05 and 1.30E+05 and 1.40E+05 and 2.50E+06 and 4.40E+07"}, {"measurement": "BLI signal, individual mice", "setting": "TFG-MET allograft tumors; day 49, drug + RT", "result": "1.30E+05 and 1.20E+05 and 7.40E+06"}, {"measurement": "BLI signal, individual mice", "setting": "TFG-MET allograft tumors; day 56, drug + RT", "result": "1.00E+05 and 1.40E+05 and 1.50E+05 and 6.60E+07 and 1.20E+08"}, {"measurement": "BLI signal, individual mice", "setting": "TFG-MET allograft tumors; day 63, drug + RT", "result": "1.10E+05 and 2.00E+05 and 1.40E+05 and 1.90E+08"}, {"measurement": "BLI signal, individual mice", "setting": "TFG-MET allograft tumors; day 70, drug + RT", "result": "1.10E+05 and 1.20E+05"}, {"measurement": "BLI signal, individual mice", "setting": "TFG-MET allograft tumors; day 77, drug + RT", "result": "1.02E+05 and 1.30E+05 and 1.10E+05"}, {"measurement": "BLI signal, individual mice", "setting": "TFG-MET allograft tumors; day 84, drug + RT", "result": "1.06E+05 and 9.93E+04 and 1.20E+05"}, {"measurement": "BLI signal, individual mice", "setting": "TFG-MET allograft tumors; day 91, drug + RT", "result": "9.34E+04 and 1.44E+05 and 1.14E+05"}, {"measurement": "animals with reduction of tumor burden by week 3 (BLI)", "setting": "TFG-MET allograft tumors; capmatinib + RT (12 Gy)", "result": "8/10"}, {"measurement": "increase of survival rate", "setting": "TFG-MET allograft tumors; capmatinib + RT (12 Gy), Survival cohort", "result": 3, "unit": "fold"}, {"measurement": "mice reaching 140 days after transplantation without residual tumor", "setting": "TFG-MET allograft tumors; capmatinib + RT arm, n = 10", "result": "Three"}, {"measurement": "mean steady total plasma AUC", "setting": "[1]", "result": "17,300 hr-ng/mL"}, {"measurement": "EC90", "setting": "TRIM24-MET-i cells; [6]", "result": 5.93, "unit": "nM"}, {"measurement": "EC90", "setting": "TRIM24-MET-i cells; [7]", "result": 4.18, "unit": "nM"}, {"measurement": "EC90", "setting": "[2]; read-out: EC90 (nM) Total", "result": 29.9, "unit": "nM"}, {"measurement": "EC90", "setting": "[2]; read-out: EC90 (nM) Unbound*", "result": 21.1, "unit": "nM"}, {"measurement": "EC90", "setting": "TRIM24-MET-r cells; [6]", "result": 199, "unit": "nM"}, {"measurement": "EC90", "setting": "TRIM24-MET-r cells; [7]", "result": 141, "unit": "nM"}, {"measurement": "combination effect with RT (ZIP synergy model)", "setting": "[3]", "result": "additive effect with a trend towards synergy"}, {"measurement": "Clast", "setting": "[4]; Brain, NCA estimate", "result": 42.4, "unit": "ng/mL"}, {"measurement": "Tlast", "setting": "[4]; Brain, NCA estimate", "result": 8, "unit": "h"}, {"measurement": "brain concentration at 16 hours post-dose", "setting": "[4]; CD1 nude mice", "result": "below the detection limit"}, {"measurement": "maximal concentration of unbound drug in the brain", "setting": "[4]; CD1 nude mice, estimated with Fu,b", "result": "~ 103 nM"}, {"measurement": "concentration reached in brain tissues", "setting": "[4]; CD1 nude mice, total drug", "result": "> 1000", "unit": "nM"}, {"measurement": "AUC(0-inf)", "setting": "[4]; [8]", "result": 1260, "unit": "ng·h/mL"}, {"measurement": "CL/F", "setting": "[4]; [8]", "result": 330, "unit": "mL/min/kg"}, {"measurement": "half-life", "setting": "[4]; [8]", "result": 2.34, "unit": "h"}, {"measurement": "k el", "setting": "[4]; [8]", "result": "8.22e-05", "unit": "s⁻¹"}, {"measurement": "Kp", "setting": "[4]; CD-1 nude, mouse, 25 mg/kg, Brain, NCA estimate, read-out: Kp,inf", "result": 0.0768}, {"measurement": "Vd/F", "setting": "[4]; CD-1 nude, mouse, 25 mg/kg, Brain, NCA estimate, read-out: Vz/F", "result": 67, "unit": "L/kg"}, {"measurement": "AUC(0-t)", "setting": "[4]; [9]", "result": 1140, "unit": "ng·h/mL"}, {"measurement": "Cmax", "setting": "[4]; [9]", "result": 486, "unit": "ng/mL"}, {"measurement": "Tmax", "setting": "[4]; [9]", "result": 0.5, "unit": "h"}, {"measurement": "Kp", "setting": "[4]; CD-1 nude, mouse, Brain, NCA estimate, read-out: Kp,last", "result": 0.0765}, {"measurement": "time after administration with higher effective exposure in the murine brain than crizotinib", "setting": "[4]; mouse, in vivo", "result": "up to 8 hours"}, {"measurement": "RAD51 protein level", "setting": "RAD51", "result": "downregulation"}, {"measurement": "plasma concentration at 16 hours post-dose", "setting": "[5]; CD1 nude mice", "result": "below the detection limit"}, {"measurement": "AUC", "setting": "[5]; CD-1 nude, mouse, plasma, 25 mg/kg, read-out: total plasma AUC", "result": 16400, "unit": "ng·h/mL"}, {"measurement": "AUC(0-inf)", "setting": "[5]; [10]", "result": 16400, "unit": "ng·h/mL"}, {"measurement": "AUC(0-t)", "setting": "[5]; [10]", "result": 14900, "unit": "ng·h/mL"}, {"measurement": "CL/F", "setting": "[5]; [10]", "result": 25.3, "unit": "mL/min/kg"}, {"measurement": "Cmax", "setting": "[5]; [10]", "result": 6200, "unit": "ng/mL"}, {"measurement": "Tmax", "setting": "[5]; [10]", "result": 0.5, "unit": "h"}, {"measurement": "half-life", "setting": "[5]; [10]", "result": 2.27, "unit": "h"}, {"measurement": "k el", "setting": "[5]; [10]", "result": "8.47e-05", "unit": "s⁻¹"}, {"measurement": "Vd/F", "setting": "[5]; CD-1 nude, mouse, Plasma, NCA estimate, read-out: Vz/F", "result": 4.99, "unit": "L/kg"}, {"measurement": "Clast", "setting": "[5]; Plasma, NCA estimate", "result": 540, "unit": "ng/mL"}, {"measurement": "Tlast", "setting": "[5]; Plasma, NCA estimate", "result": 8, "unit": "h"}]}]}
